Measurements published in patent US8883793B2, “Tubulin inhibitors and methods of using the same” (Development Center for Biotechnology, priority 2010, dated 2014).

Tests used:
[1] = system: KB cell; test: MTS assay, growth inhibition of KB cells; format: cell-based; conditions: Homo sapiens, at 10 μM concentration, incubated for 72 h, read-out: Inhibition rate (%) (growth inhibition rate of MTS assay)
Method: MTS assay was performed in determining the growth inhibition of cancer cells. MTS ((3-(4,5-dimethylthiazol-2-yl)-5-(3-carboxymethoxyphenyl)-2-(4-sulfophenyl)-2H-tetrazolium)), in the presence of phenazine methosulfate (PMS) and reductases, produces a formazan product that has an absorbance maximum at 490-500 nm. MTS assays (and closely related MTT assay) are commonly used to measure cell viabilities or survivals.
Briefly, KB/Hela, NCI-H460, A375, Colo205, HCT-116, U937, MCF-7, MDA-MB-231, A549, H1975 cells were seeded into 96-well plate at 4000, 4000, 2000, 2000, 2000 cells/well. After 24 h for attachment, test compound was added into each well and incubated for 72 h. A total of 20 μl of MTS reaction reagent containing the MTS (Promega, Madison, Wis.) and PMS in a ratio of 20:1 was added into each well to react with dehydrogenase enzyme in survival cells. After 3 h, the absorbance at 490 nm was monitored using Emax precision microplate reader (Molecular Devices, Sunnyvale, Calif.).
The growth inhibition rate of MTS assay at KB cell of these compounds (at 10 μM concentration) are list in Table 5.

[2] = system: porcine brain tubulin; test: Tubulin polymerization assay; format: biochemical; conditions: at 10 μM concentration
Method: In vitro tubulin polymerization assay was performed by using the Tubulin Polymerization Assay Kit (Cytoskeleton, Inc., Denver, Colo.) in a 96-well format, which used the polymerization of porcine brain tubulin in vitro in the presence of varying concentrations of the test compounds. Fluorescence measurements were obtained at 1-minute intervals over a 31-minute period. Fluorescent measurements were performed using excitation at 365 nm, and emission was measured at 440 nm using a Packard Fusion Alpha Microplate Analyzer. Data were analyzed as relative fluorescent units by GraphPad Prism 5 Demo.

[3] = system: biotinylated tubulin; test: Colchicine competitive-binding assay; conditions: at 10 μM concentration, 3H-colchicine; for Inhibition rate (%) (colchicine competitive-binding): right column pair of Table 7; for binding rate (%) (colchicine competitive-binding): left column pair of Table 7
Method: The colchicine competitive-binding assay was done by using the Colchicine Site competitive Assay Kit (Cytoskeleton, Inc.), streptavidin-coated yttrium SPA beads(GE Healthcare, Inc.), and ^3H-colchicine(PerkinElmer, Inc.). Briefly, the binding mixture includes 1 μL^3H-labeled ligand (specific activity […]), and 1 μg biotinylated tubulin and 88 μg SPA beads in 200 μL assay buffer. The test compound and ^3H-labeled ligand were added before tubulin. After incubation at 37° C. for 2 hours, the SPA beads were allowed to settle down for 24 hours at room temperature, and scintillation counting was done on the TopCount Microplate Scintillation Counter.

Inhibition rate (%) (colchicine competitive-binding) [3] | binding rate (%) (colchicine competitive-binding) [3] | Structure (SMILES) | inhibition at 10 µM [1] [%] | Inhibition rate (%) of tubulin polymerization [2] [%]
90.0 |  | O=C(CCc1ccccc1)Nc1ccc(-n2ccc3ccccc32)cn1 [Compound 79, N-(5-Indol-1-yl-pyridin-2-yl)-3-phenyl-propionamide] | 73.7 | 53.2
82.9 |  | O=C(CCc1ccccc1)Nc1ncc(-c2ccccc2)cn1 [Compound 94, 3-Phenyl-N-(5-phenyl-pyrimidin-2-yl)-propionamide] | 97.4 | 55.2
 | 85.2 | COc1ccc(Sc2cnc(NC(=O)CCc3ccccc3)s2)cc1 [Compound 69, N-[5-(4-Methoxy-phenylsulfanyl)-thiazol-2-yl]-3-phenyl-propionamide] | 87.6 | 50.5
83.4 |  | COc1cccc(-c2cnc(NC(=O)CCc3ccc(C)o3)nc2)c1OC [Compound 100, N-[5-(2,3-Dimethoxy-phenyl)-pyrimidin-2-yl]-3-(5-methyl-furan-2-yl)-propionamide] | 97.8 | 84.3
 | 86.0 | COc1ccc(Sc2cnc(NC(=O)CCc3ccc(C)o3)s2)cc1 [Compound 71, N-[5-(4-Methoxy-phenylsulfanyl)-thiazol-2-yl]-3-(5-methyl-furan-2-yl)-propionamide] | 94.4 | 60.1
99.3 |  | Cc1ccc(CCC(=O)Nc2ncc(-c3ccc(F)cc3)cn2)o1 [Compound 105, N-[5-(4-Fluoro-phenyl)-pyrimidin-2-yl]-3-(5-methyl-furan-2-yl)-propionamide] | 96.7 | 72.2
92.6 |  | Cc1ccc(CCC(=O)Nc2ccc(SCc3ccccc3)cn2)o1 [Compound 85, N-(5-Benzylsulfanyl-pyridin-2-yl)-3-(5-methyl-furan-2-yl)-propionamide] | 76.8 | 54.0
 | 68.8 | COc1ccc(Cc2cnc(NC(=O)CCc3ccc(-c4ccccc4)cc3)s2)c(OC)c1OC [Compound 55, 3-Biphenyl-4-yl-N-[5-(2,3,4-trimethoxy-benzyl)-thiazol-2-yl]-propionamide] | 95.1 | 54.9
59.2 |  | COc1cccc(-c2cnc(NC(=O)CCc3ccccc3)nc2)c1OC [Compound 102, N-[5-(2,3-Dimethoxy-phenyl)-pyrimidin-2-yl]-3-phenyl-propionamide] | 94.5 | 58.6
 | 75.4 | COc1ccc(Cc2cnc(NC(=O)CCc3ccccc3)s2)c(OC)c1OC [Compound 52, 3-Phenyl-N-[5-(2,3,4-trimethoxy-benzyl)-thiazol-2-yl]-propionamide] | 94.5 | 51.2
70.1 |  | Cc1ccc(CCC(=O)Nc2ncc(-c3ccc(N(C)C)cc3)cn2)o1 [Compound 106, N-[5-(4-Dimethylamino-phenyl)-pyrimidin-2-yl]-3-(5-methyl-furan-2-yl)-propionamide] | 84.6 | 69.3
99.8 |  | Cc1ccc(CCC(=O)Nc2ccc(-n3ccnc3)cn2)o1 [Compound 77, N-(5-Imidazol-1-yl-pyridin-2-yl)-3-(5-methyl-furan-2-yl)-propionamide] | 87.3 | 60.8
57.5 |  | O=C(/C=C/c1ccccc1)Nc1ncc(-c2ccc(F)cc2)cn1 [Compound 98, N-[5-(4-Fluoro-phenyl)-pyrimidin-2-yl]-3-phenyl-acrylamide] | 81.9 | 
97.5 |  | Cc1ccc(CCC(=O)Nc2ncc(-c3ccc(N(C)C)cc3)cc2C)o1 [Compound 120, N-[5-(4-Dimethylamino-phenyl)-3-methyl-pyridin-2-yl]-3-(5-methyl-furan-2-yl)-propionamide] | 85.9 | 51.8
 | 50.2 | Cc1ccc(CCC(=O)Nc2ncc(Cc3ccccc3)s2)o1 [Compound 1, N-(5-Benzyl-thiazol-2-yl)-3-(5-methyl-furan-2-yl)-propionamide] | 95.4 | 
54.6 |  | Cc1ccc(CCC(=O)Nc2ncc(-n3ccnc3)cc2C)o1 [Compound 87, N-(5-Imidazol-1-yl-3-methyl-pyridin-2-yl)-3-(5-methyl-furan-2-yl)-propionamide] | 93.9 | 
58.2 |  | Cc1cc(-c2ccc(N(C)C)cc2)cnc1NC(=O)CCc1ccccc1 [Compound 119, N-[5-(4-Dimethylamino-phenyl)-3-methyl-pyridin-2-yl]-3-phenyl-propionamide] | 95.1 | 
81.1 |  | Cc1ccc(CCC(=O)Nc2ncc(-c3cccc4ccccc34)cn2)o1 [Compound 103, 3-(5-Methyl-furan-2-yl)-N-(5-naphthalen-1-yl-pyrimidin-2-yl)-propionamide] | 94.1 | 
61.3 |  | O=C(CCc1ccccc1)Nc1ncc(-c2cccc3ccccc23)cn1 [Compound 104, N-(5-Naphthalen-1-yl-pyrimidin-2-yl)-3-phenyl-propionamide] | 96.6 | 
 | 63.6 | O=C(CCc1ccccc1)Nc1ncc(Cc2ccc3c(c2)OCO3)s1 [Compound 6, N-(5-Benzo[1,3]dioxol-5-ylmethyl-thiazol-2-yl)-3-phenyl-propionamide] | 95.1 | 
 | 63.3 | COc1cccc(CCC(=O)Nc2nc(C)c(Cc3ccc4c(c3)OCO4)s2)c1 [Compound 63, N-(5-Benzo[1,3]dioxol-5-ylmethyl-4-methyl-thiazol-2-yl)-3-(3-methoxy-phenyl)-propionamide] | 95.6 | 
 | 64.9 | COc1cc(Cc2cnc(NC(=O)CCc3ccccc3)s2)cc(OC)c1OC [Compound 49, 3-Phenyl-N-[5-(3,4,5-trimethoxy-benzyl)-thiazol-2-yl]-propionamide] | 95.1 | 
 | 62.4 | COc1ccc(Cc2cnc(NC(=O)CCc3ccc(F)cc3)s2)cc1 [Compound 11, 3-(4-Fluoro-phenyl)-N-[5-(4-methoxy-benzyl)-thiazol-2-yl]-propionamide] | 95.1 | 
 | 55.3 | Cc1nc(NC(=O)CCc2cccnc2)sc1Cc1ccc2c(c1)OCO2 [Compound 62, N-(5-Benzo[1,3]dioxol-5-ylmethyl-4-methyl-thiazol-2-yl)-3-pyridin-3-yl-propionamide] | 96 | 
57.2 |  | O=C(/C=C/c1ccccc1)Nc1ncc(-c2ccccc2)cn1 [Compound 93, 3-Phenyl-N-(5-phenyl-pyrimidin-2-yl)-acrylamide] | 96 | 
 | 57.9 | Cc1nc(NC(=O)CCc2ccc(F)cc2)sc1Cc1ccc2c(c1)OCO2 [Compound 61, N-(5-Benzo[1,3]dioxol-5-ylmethyl-4-methyl-thiazol-2-yl)-3-(4-fluoro-phenyl)-propionamide] | 90.9 | 
70.0 |  | O=C(CCc1ccccc1)Nc1ccc(Sc2ccccc2)cn1 [Compound 81, 3-Phenyl-N-(5-phenylsulfanyl-pyridin-2-yl)-propionamide] | 95.1 | 
 |  | O=C(CCc1ccccc1)Nc1ncc(-c2ccc(F)cc2)s1 [Compound 58, N-[5-(4-Fluoro-phenyl)-thiazol-2-yl]-3-phenyl-propionamide] | 85.8 | 55.1
 | 64.6 | Cc1nc(NC(=O)CCc2ccccc2)sc1Cc1ccc2c(c1)OCO2 [Compound 60, N-(5-Benzo[1,3]dioxol-5-ylmethyl-4-methyl-thiazol-2-yl)-3-phenyl-propionamide] | 95.1 | 
